Measurements as given in patent US20160324770A1, “INTRATHECAL ADMINISTRATION, PREFERABLY INTRAVENTRICULAR, OF MTOR INHIBITORS FOR THE THERAPY OF SOME NEURODEGENERATIVE, NEUROINFLAMMATORY AND NEURO-ONCOLOGIC DISEASES” (priority 2012, published 2016).
Where two headings read alike, the source gives them in different places.

How the values were obtained:
[1] = test system: Subependymal Giant Cell Astrocytomas (SEGAs); conditions: systemic administration, cited from earlier work
[2] = test system: p70-S6 kinase phosphorylation (measure of mTOR activity); assay: Western blot of p70S6K phosphorylation in brain, liver and spleen (verification of mTOR inhibition); format: in vivo, mice
Method: The frozen mouse tissues were homogenized in T-PER solution (Pierce) containing a cocktail of protease inhibitors (Sigma-Aldrich) and a cocktail of phosphatase inhibitors (Sigma-Aldrich). The homogenized samples were sonicated 3 times for 15 sec (amplitude of 10 microns) at 4° C. using an MSE soniprep 150 sonicator (Sanyo), and subsequently centrifuged at 4° C. for 30 minutes at 16000 g. The supernatant was recovered and the proteins quantified by means of a Bradford assay using BSA as the standard.
For the Western blot analysis, the proteins were separated by SDS-PAGE under reducing conditions according to the method of Laemmli. Subsequently, the proteins were transferred onto a PVDF membrane (Biorad), which was incubated with the following primary antibodies: anti-phospho-p70S6K (T^389), anti-phospho-p70S6K (S^371), anti-p70S6K (Cell Signaling) and anti-actin (Sigma-Aldrich). After being washed with TBS-Tween (50 mM Tris, pH 7.5, NaCl […] and 0.1% Tween 20), the membrane was incubated with one of the following secondary antibodies: anti-rabbit IgG conjugated to HRP (GE Healthcare) and anti-mouse IgG conjugated to HRP (GE Healthcare). The membrane was developed by means of ECL prime (GE Healthcare).
Verification of mTOR inhibition. We analyzed the actual inhibition of mTOR by WB. mTOR is a kinase with multiple substrates, one of which is p70-S6 kinase. Phosphorylation of the latter is unanimously considered a measure of mTOR activity.

[3] = Blood and brain concentrations (LC-MS) in mice treated intraperitoneally for a week with graduated doses; format: in vivo, CD1 mice; conditions: for concentration at 1 week: CD1, mouse
Method: A quantitative analysis of everolimus in blood and tissue samples was performed with the isotopic dilution method using the LC-MS technique. The chromatographic system was the following: Agilent 1290 Infinity HPLC equipped with a binary pump and HiP Auto Sampler model G4226A. The injection volume was 2 μL, the analytical column used was a Phenomenex Kinetics PFP UHPLC column (Phenomenex, Milan, Italy) […], 1.7 μm, 100 Å, temperature controlled at 55° C. A gradient elution was performed using as solvent A: water with 5 mM ammonium formiate, solvent B: methanol with 0.1% formic acid. The elution profile was the following: solvent A 30%/solvent B 70% for 3 minutes, solvent A 1%/solvent B 99% from 3 to 6 minutes, at a flow velocity of 0.25 mL/min. This setup enabled an elution time of 2.5 minutes. Every injection was preceded by a cycle of washing the injector system with methanol.
Mass spectrometry was conducted using a Q-TOF MS detector model G6540A (Agilent, Germany) equipped with a Dual AJS ESI (electrospray ionization interface) system. The instrument parameters were the following: sheath gas flow: […], sheath gas temperature: 300° C., gas flow: 6 L/min, gas temperature: 300° C., nebulizer pressure: 35 psi, ion spray voltage: 5500 V.
Both everolimus and the isotopic internal standard were detected as ammonium adducts in the positive ion mode.
Everolimus was extracted from whole blood in 1 mL of a methanol solution containing 10% ammonium acetate in order to enable precipitation of most of the serum protein.
The internal standard used was isotopic 4d-2C^13-everolimus added to the extraction solution at a concentration of 200 ng/mL.
The blood samples were freeze-dried and subsequently extracted. The extraction process was carried out in a sonication bath for approx. 10 minutes to ensure complete haemolysis and release of the drug from the cell material.
The samples were centrifuged (10 minutes, 4000 rpm, 10° C.) and the supernatant was then separated from the pellet.
The solutions thus obtained were then purified by means of HybridSPE®-Phospholipid solid-phase extraction cartridges with a total volume of 1 ml (Sigma Aldrich, Milan) to eliminate the excess lipid material potentially present. The process was preliminarily validated both for everolimus and for the internal standard in solution and in matrices, providing a yield >98% w/v.
The process of extraction from brain samples, divided into right and left hemispheres, was similar to the one for whole blood. The tissue samples were weighed and subsequently freeze-dried. After freeze-drying the samples were finely chopped to facilitate subsequent extraction. 1 mL of the methanol solution was then added to 1% v/v of ammonium formiate with 200 ng/mL of internal standard. The samples were then subjected to 10 minutes of sonication and vortexed to ensure complete extraction of the drug. Then followed centrifugation (10 minutes, 4000 rpm, 10° C.) and the supernatant was separated from the pellet. As previously described, the solutions were purified by means of HybridSPE®-Phospholipid solid-phase extraction cartridges with a total volume of 1 ml (Sigma Aldrich, Milan) to eliminate the excess lipid material. The samples were then immediately submitted to LC-MS analysis.

[4] = Blood and brain concentrations and metabolites (LC-MS) after intraventricular (intracerebral) administration by osmotic pump; format: in vivo; conditions: mice that had received intrathecal treatment

## CO[C@H]1C[C@@H]2CC[C@@H](C)[C@@](O)(O2)C(=O)C(=O)N2CCCC[C@H]2C(=O)O[C@H]([C@H](C)C[C@@H]2CC[C@@H](OCCO)[C@H](OC)C2)CC(=O)[C@H](C)/C=C(\C)[C@@H](O)[C@@H](OC)C(=O)[C@H](C)C[C@H](C)/C=C/C=C/C=C/1C [everolimus]
[1]; 28 patients affected by TS
  Study endpoint (volumetric reduction in SEGAs): reached the endpoint
[1]; many adverse reactions, most of infectious origin
  Severity grade of adverse reactions: 1-3
[2]; intrathecal treatment
  Inhibition of mTOR as shown by WB: local, but not systemic, inhibition of mTOR
[2]; selected dose (12.5 mg/Kg) intraventricular, brain, FIG. 1
  Phosphorylation state of p70-S6 kinase in the brain vs controls: less phosphorylated form than in the controls
[2]; selected dose (12.5 mg/Kg) intraventricular, spleen and liver, FIG. 1
  Phosphorylation state of p70-S6 kinase in the spleen and liver: normally phosphorylated
[3]; brain, intraperitoneal, 0.6125 mg/Kg, heading: Brain conc 1, one week, lowest of 3 dosages (C=0.6125 mg/Kg)
  concentration at 1 week: 46 ng/g
[3]; all 3 dosages of the one-week study
  Level in the blood: did not reach measurable levels in the blood
[3]; female, brain, left hemisphere (sx), ip, females, 0.6125 mg/kg i.p. for a week, normalized to weight of a hemisphere, read-out: Brain concentration, hemisphere sx (converted)
  concentration at 1 week: 48 ng/g
[3]; female, brain, left hemisphere (sx), ip, females, 1.25 mg/kg i.p. for a week, normalized to weight of a hemisphere, read-out: Brain concentration, hemisphere sx (converted)
  concentration at 1 week: 80 ng/g
[3]; female, brain, left hemisphere (sx), ip, females, 2.5 mg/kg i.p. for a week, normalized to weight of a hemisphere, read-out: Brain concentration, hemisphere sx (converted)
  concentration at 1 week: 152 ng/g
[3]; female, brain, right hemisphere (dx), ip, females, 0.6125 mg/kg i.p. for a week, normalized to weight of a hemisphere, read-out: Brain concentration, hemisphere dx (converted)
  concentration at 1 week: 44 ng/g
[3]; female, brain, right hemisphere (dx), ip, females, 1.25 mg/kg i.p. for a week, normalized to weight of a hemisphere, read-out: Brain concentration, hemisphere dx (converted)
  concentration at 1 week: 72 ng/g
[3]; female, brain, right hemisphere (dx), ip, females, 2.5 mg/kg i.p. for a week, normalized to weight of a hemisphere, read-out: Brain concentration, hemisphere dx (converted)
  concentration at 1 week: 132 ng/g
[3]; female, whole blood, ip, females, 0.6125 mg/kg intraperitoneally for a week, n = 2, read-out: Blood concentration
  concentration at 1 week: 15 ± 3 ng/mL
[3]; female, whole blood, ip, females, 1.25 mg/kg intraperitoneally for a week, n = 2, read-out: Blood concentration
  concentration at 1 week: 25 ± 5 ng/mL
[3]; female, whole blood, ip, females, 2.5 mg/kg intraperitoneally for a week, n = 2, read-out: Blood concentration
  concentration at 1 week: 46 ± 4 ng/mL
[3]; male, brain, left hemisphere (sx), ip, males, 0.6125 mg/kg i.p. for a week, normalized to weight of a hemisphere, read-out: Brain concentration, hemisphere sx (converted)
  concentration at 1 week: 36 ng/g
[3]; male, brain, left hemisphere (sx), ip, males, 1.25 mg/kg i.p. for a week, normalized to weight of a hemisphere, read-out: Brain concentration, hemisphere sx (converted)
  concentration at 1 week: 100 ng/g
[3]; male, brain, left hemisphere (sx), ip, males, 2.5 mg/kg i.p. for a week, normalized to weight of a hemisphere, read-out: Brain concentration, hemisphere sx (converted)
  concentration at 1 week: 176 ng/g
[3]; male, brain, right hemisphere (dx), ip, males, 0.6125 mg/kg i.p. for a week, normalized to weight of a hemisphere, read-out: Brain concentration, hemisphere dx (converted)
  concentration at 1 week: 56 ng/g
[3]; male, brain, right hemisphere (dx), ip, males, 1.25 mg/kg i.p. for a week, normalized to weight of a hemisphere, read-out: Brain concentration, hemisphere dx (converted)
  concentration at 1 week: 148 ng/g
[3]; male, brain, right hemisphere (dx), ip, males, 2.5 mg/kg i.p. for a week, normalized to weight of a hemisphere, read-out: Brain concentration, hemisphere dx (converted)
  concentration at 1 week: 208 ng/g
[3]; male, whole blood, ip, males, 0.6125 mg/kg intraperitoneally for a week, n = 2, read-out: Blood concentration
  concentration at 1 week: 16 ± 4 ng/mL
[3]; male, whole blood, ip, males, 1.25 mg/kg intraperitoneally for a week, n = 2, read-out: Blood concentration
  concentration at 1 week: 42 ± 4 ng/mL
[3]; male, whole blood, ip, males, 2.5 mg/kg intraperitoneally for a week, n = 2, read-out: Blood concentration
  concentration at 1 week: 59 ± 3 ng/mL
[3]; mice treated with intraperitoneal administration
  Blood concentration (LC-MS): in the therapeutic range
[4]
  Blood concentration (detectable only in traces): < 1 mg/kg
